From patent US11691962B2 (eXIthera Pharmaceuticals, Inc., priority 2018, dated 2023) come the findings set out here.

Bounds are passed on as bounds.

Usually Papp A→B stands for how fast a substance crosses the layer from the apical side. A low value points to poor permeation. In general, Papp B→A refers to the apparent permeability from the basolateral to the apical side of a cell layer. In general, IC50 refers to the concentration at which inhibition is half-maximal. As a reminder, the bioavailability is dose-corrected exposure relative to a reference, in per cent. Higher therefore signals good availability.

The nature of data set [1]: Caco-2 cell permeability assay. The class given is in vitro ADME, human. To be noted: human, 37° C.; for Papp A→B at 60 min, 10 μM: Caco-2, apical to basolateral; for Papp B→A at 40 min, 10 μM: Caco-2, basolateral to apical. The procedure, abridged:
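Caco-2 monolayers (days 21-25 post-seeding) received 10 μM compound in HBSS-MES pH 6.5 or HBSS-HEPES pH 7.4 (1% DMSO) at 37 °C, for 60 min A-B or 40 min B-A. Donor and receiver samples were quantified by HPLC-MS/MS (SRM), and Papp and recovery were calculated.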
(In general: Passage across Caco-2 layers is used to estimate intestinal permeability.)

Data set [2] addresses Factor XIa (Homo sapiens (Human), UniProt P03951). Put plainly: Factor XIa enzyme inhibition assay (dose response, fluorogenic AMC substrate). Format: biochemical. Conditions: read-out: hFXIa IC50. The method in brief: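 Fluorogenic progress curves (30 min, 1-min reads, 30° C) were recorded for 0.25 nM FXIa cleaving 50 μM Glp-Pro-Arg-AMC in Hepes pH 7.4 buffer with NaCl and Tween 20. Compounds were serially two-fold diluted, and IC50 was fitted with a Hill equation.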

Data set [3] in a line: Determination of bioavailability in a dog. The class given is in vivo. Conditions: plasma, male beagle dogs, IV bolus 1 mg/kg vs oral gavage 5 mg/kg, AUC comparison. The protocol:
The following protocol was used to estimate the bioavailability of test compounds in a dog. Test compounds were formulated in vehicles compatible with intravenous and oral dosing. Test compounds were administered to male beagle dogs via an intravenous bolus at 1 mg/kg (1 mg/mL at a dose volume of 1 mL/kg) or via oral gavage at 5 mg/kg (1 mg/mL at a dose volume of 5 mL/kg). Blood samples were collected via the contralateral (to intravenous bolus) jugular vein or via other accessible vein, at various timepoints following administration out to 24 hours post dose. Plasma samples (EDTA) were obtained by centrifugation (2200×g for 10 minutes at 5° C.) and stored frozen ([…]) until analyzed for parent compound via LC/MS/MS. Pharmacokinetic parameters were estimated from the plasma concentration time data by standard non-compartmental methods utilizing standard analysis software. By comparing the area under the curve (AUC) for IV and PO administration estimates of oral bioavailability were determined.

Data set [4] concerns the target Factor Xa (Homo sapiens (Human), UniProt P00742). Description: Dose response assay for protease inhibitors: Factor Xa. The class given is biochemical. Conditions: selectivity, Factor Xa over Factor XIa. The procedure, abridged:
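Glp-Pro-Arg-AMC substrate (thrombin, trypsin) or Pro-Phe-Arg-AMC/Boc-Leu-Gly-Arg-AMC (Factor Xa), diluted to 100 μM, in 20 mM Hepes pH 7.4, 150 mM NaCl, 0.02% Tween 20; enzyme diluted to 0.5 nM before addition. Two-fold serial compound dilutions; kinetic reads at 30° C. Data yield IC50 and Kon.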

Chain of Factor Xa (P00742 235-488): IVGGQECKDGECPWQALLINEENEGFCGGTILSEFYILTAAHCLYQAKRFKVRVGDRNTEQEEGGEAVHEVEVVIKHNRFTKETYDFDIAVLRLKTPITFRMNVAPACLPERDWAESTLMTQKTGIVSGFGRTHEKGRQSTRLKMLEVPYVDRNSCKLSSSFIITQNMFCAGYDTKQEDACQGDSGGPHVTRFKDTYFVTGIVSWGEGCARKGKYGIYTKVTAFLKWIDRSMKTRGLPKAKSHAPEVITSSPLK
Chain of Factor Xa (P00742 41-179 partner): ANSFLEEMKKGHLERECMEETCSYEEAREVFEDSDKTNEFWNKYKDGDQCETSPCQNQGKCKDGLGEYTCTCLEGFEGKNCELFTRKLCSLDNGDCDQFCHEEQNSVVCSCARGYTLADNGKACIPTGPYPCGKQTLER
Chain of Factor XIa (P03951 388-625): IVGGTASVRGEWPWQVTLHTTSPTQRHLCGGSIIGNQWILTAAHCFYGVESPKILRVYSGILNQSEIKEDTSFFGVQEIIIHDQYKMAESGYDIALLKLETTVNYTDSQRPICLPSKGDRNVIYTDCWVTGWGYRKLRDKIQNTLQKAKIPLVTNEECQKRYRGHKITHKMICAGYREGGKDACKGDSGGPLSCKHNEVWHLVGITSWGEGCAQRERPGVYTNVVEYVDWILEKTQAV
Chain of Factor XIa (P03951 19-387 partner): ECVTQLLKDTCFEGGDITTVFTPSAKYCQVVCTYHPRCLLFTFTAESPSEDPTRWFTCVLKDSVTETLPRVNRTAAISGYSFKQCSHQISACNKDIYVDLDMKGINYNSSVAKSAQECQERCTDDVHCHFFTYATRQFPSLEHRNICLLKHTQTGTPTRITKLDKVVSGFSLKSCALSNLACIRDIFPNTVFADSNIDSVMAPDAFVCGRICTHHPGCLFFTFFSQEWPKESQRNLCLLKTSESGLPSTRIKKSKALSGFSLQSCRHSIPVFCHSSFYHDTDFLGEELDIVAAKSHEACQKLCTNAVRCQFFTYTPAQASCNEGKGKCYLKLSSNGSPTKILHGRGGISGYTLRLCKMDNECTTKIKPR

As for `CC[C@@H](NC(=O)N1C(=O)[C@H](Cc2ccnc(N)c2)[C@H]1C(=O)N(C)c1ccn(C)n1)c1ccccc1` [Compound 1-3, (2S,3R)-3-((2-aminopyridin-4-yl)methyl)-N2-(1-methyl-1H-pyrazol-3-yl)-N1-((R)-1-phenylpropyl)-N2-methyl-4-oxoazetidine-1,2-dicarboxamide], in data set [1], the Papp A→B at 60 min, 10 μM is below 10 ×10⁻⁶ cm/s and the Papp B→A at 40 min, 10 μM fell in the range of 31 to 50 ×10⁻⁶ cm/s. Besides, the IC50 in data set [2] is below 10 nM. For the same compound, the bioavailability in data set [3] is above 30%. In data set [4], the “Ratio: FXa/FXIa” value is “I (“I” indicates > 500)”.
As to `CC[C@@H](NC(=O)N1C(=O)[C@H](Cc2ccnc(N)c2)[C@H]1C(=O)N(C)c1ccnn1C)c1cccc(Cl)c1` [Compound 1-4, (2S,3R)-3-((2-aminopyridin-4-yl)methyl)-N2-(1-methyl-1H-pyrazol-5-yl)-N1-((R)-1-(3-chlorophenyl)propyl)-N2-methyl-4-oxoazetidine-1,2-dicarboxamide], in data set [1], the Papp A→B at 60 min, 10 μM was in the range of 11 to 30 ×10⁻⁶ cm/s and the Papp B→A at 40 min, 10 μM lay within 11 to 30 ×10⁻⁶ cm/s. Besides, the IC50 in data set [2] is below 10 nM. The compound also had a bioavailability in data set [3] above 30%. In addition, the “Ratio: FXa/FXIa” value in data set [4] is listed as “I (“I” indicates > 500)”.
With `CC[C@@H](NC(=O)N1C(=O)[C@H](Cc2ccnc(N)c2)[C@H]1C(=O)N(C)c1cccs1)c1ccccc1` [Compound 1-10, (2S,3R)-3-((2-aminopyridin-4-yl)methyl)-N2-(thiophen-2-yl)-N1-((R)-1-phenylpropyl)-N2-methyl-4-oxoazetidine-1,2-dicarboxamide], in data set [1], the Papp A→B at 60 min, 10 μM was 11 to 30 ×10⁻⁶ cm/s and the Papp B→A at 40 min, 10 μM lay in the range of 11 to 30 ×10⁻⁶ cm/s. In data set [2], the IC50 was below 10 nM. For the same compound, the bioavailability in data set [3] lay in the range of 11 to 30%. In data set [4], the “Ratio: FXa/FXIa” value was “H (“H” indicates 101-1000)”.
In data set [1], `CC[C@@H](NC(=O)N1C(=O)[C@H](Cc2ccnc(N)c2)[C@H]1C(=O)N(C)c1nccn1C)c1ccccc1` [Compound 1-13, (2S,3R)-3-((2-aminopyridin-4-yl)methyl)-N2-(1-methyl-1H-imidazol-2-yl)-N1-((R)-1-phenylpropyl)-N2-methyl-4-oxoazetidine-1,2-dicarboxamide] returned an apical-to-basolateral permeability (Papp A→B) at 60 min, 10 μM below 10 ×10⁻⁶ cm/s and a Papp B→A at 40 min, 10 μM of 11 to 30 ×10⁻⁶ cm/s. The IC50 in data set [2] is below 10 nM. For the same compound, the bioavailability in data set [3] was above 30%. Moreover, the “Ratio: FXa/FXIa” value in data set [4] is given as “I (“I” indicates > 500)”.
For `CC[C@@H](NC(=O)N1C(=O)[C@H](Cc2cc(C)nc(NC)c2)[C@H]1C(=O)N(C)c1nccn1C)c1ccccc1` [Compound 1-45, (2S,3R)-3-((2-methylamino-6-methylpyridin-4-yl)methyl)-N2-(1-methyl-1H-imidazol-2-yl)-N1-((R)-1-phenylpropyl)-N2-methyl-4-oxoazetidine-1,2-dicarboxamide] the same measures were 11 to 30 ×10⁻⁶ cm/s, 31 to 50 ×10⁻⁶ cm/s, 10 to 100 nM, 11 to 30% and “I (“I” indicates > 500)”.
With `CC[C@@H](NC(=O)N1C(=O)[C@H](Cc2cc(C)nc(N)c2)[C@H]1C(=O)N(C)c1nccn1C)c1ccccc1` [Compound 1-51, (2S,3R)-3-((2-amino-6-methylpyridin-4-yl)methyl)-N2-(1-methyl-1H-imidazol-2-yl)-N1-((R)-1-phenylpropyl)-N2-methyl-4-oxoazetidine-1,2-dicarboxamide], in data set [1], the Papp A→B at 60 min, 10 μM is below 10 ×10⁻⁶ cm/s and the Papp B→A at 40 min, 10 μM lay within 31 to 50 ×10⁻⁶ cm/s. Further, in data set [2], the IC50 was below 10 nM. In data set [3], the bioavailability is above 30%. Also, the “Ratio: FXa/FXIa” value in data set [4] is given as “I (“I” indicates > 500)”.
Regarding `CC[C@@H](NC(=O)N1C(=O)[C@H](Cc2ccnc(N)c2)[C@H]1C(=O)N(C)c1nccn1C)c1ccccc1Cl` [Compound 1-83], in data set [1], the Papp A→B at 60 min, 10 μM was below 10 ×10⁻⁶ cm/s and the Papp B→A at 40 min, 10 μM is above 50 ×10⁻⁶ cm/s. In addition, the IC50 in data set [2] fell in the range of 10 to 100 nM. Besides, the “Ratio: FXa/FXIa” value in data set [4] is recorded as “I (“I” indicates > 500)”.
For `CC[C@@H](NC(=O)N1C(=O)[C@H](Cc2ccnc(N)c2)[C@H]1C(=O)N(C)c1cnn(C)c1)c1ccccc1` [Compound 1-88, (2S,3R)-3-((2-aminopyridin-4-yl)methyl)-N2-(1-methyl-1H-pyrazol-4-yl)-N1-((R)-1-phenylpropyl)-N2-methyl-4-oxoazetidine-1,2-dicarboxamide] the same measures were below 10 ×10⁻⁶ cm/s, 11 to 30 ×10⁻⁶ cm/s, below 10 nM and “H (“H” indicates 101-1000)”.
For `CC[C@@H](NC(=O)N1C(=O)[C@H](Cc2ccnc(N)c2)[C@H]1C(=O)N(C)c1cn(C)cn1)c1ccccc1` [Compound 1-90, (2S,3R)-3-((2-aminopyridin-4-yl)methyl)-N2-(1-methyl-1H-imidazol-4-yl)-N1-((R)-1-phenylpropyl)-N2-methyl-4-oxoazetidine-1,2-dicarboxamide] the same measures were below 10 ×10⁻⁶ cm/s, 11 to 30 ×10⁻⁶ cm/s, below 10 nM and “I (“I” indicates > 500)”.
For `CC[C@@H](NC(=O)N1C(=O)[C@H](Cc2cc(C)nc(N)c2)[C@H]1C(=O)N(C)c1nccn1C)c1cc(F)ccc1F` [Compound 1-137, (2S,3R)-3-((2-amino-6-methylpyridin-4-yl)methyl)-N2-(1-methyl-1H-imidazol-2-yl)-N1-((R)-1-(2,5-difluorophenyl)propyl)-N2-methyl-4-oxoazetidine-1,2-dicarboxamide] the same measures were below 10 ×10⁻⁶ cm/s, 11 to 30 ×10⁻⁶ cm/s, below 10 nM and “I (“I” indicates > 500)”.
With `CC[C@@H](NC(=O)N1C(=O)[C@H](Cc2cc(C)nc(N)c2)[C@H]1C(=O)N(C)c1ccnn1C)c1ccc(C)c(C)c1` [Compound 1-152, (2S,3R)-3-((2-amino-6-methylpyridin-4-yl)methyl)-N2-(1-methyl-1H-pyrazol-5-yl)-N1-((R)-1-(3,4-dimethylphenyl)propyl)-N2-methyl-4-oxoazetidine-1,2-dicarboxamide], in data set [1], the Papp A→B at 60 min, 10 μM was below 10 ×10⁻⁶ cm/s and the Papp B→A at 40 min, 10 μM fell in the range of 11 to 30 ×10⁻⁶ cm/s. For the same compound, the IC50 in data set [2] is below 10 nM. Also, the “Ratio: FXa/FXIa” value in data set [4] is reported as “I (“I” indicates > 500)”.
Regarding `CC[C@@H](NC(=O)N1C(=O)[C@H](Cc2cc(C)nc(N)c2)[C@H]1C(=O)N(C)c1ccnn1C)c1ccc(C)c(F)c1` [Compound 1-155, (2S,3R)-3-((2-amino-6-methylpyridin-4-yl)methyl)-N2-(1-methyl-1H-pyrazol-5-yl)-N1-((R)-1-(3-fluoro-4-methylphenyl)propyl)-N2-methyl-4-oxoazetidine-1,2-dicarboxamide], in data set [1], the apparent permeability from apical to basolateral (Papp A→B) at 60 min, 10 μM was below 10 ×10⁻⁶ cm/s and the Papp B→A at 40 min, 10 μM was 11 to 30 ×10⁻⁶ cm/s. Moreover, the IC50 in data set [2] is below 10 nM. In addition, the “Ratio: FXa/FXIa” value in data set [4] is “I (“I” indicates > 500)”.
For `CC[C@@H](NC(=O)N1C(=O)[C@H](Cc2cc(C)nc(N)c2)[C@H]1C(=O)N(C)c1ccnn1C)c1ccc(F)c(F)c1` [Compound 1-158, (2S,3R)-3-((2-amino-6-methylpyridin-4-yl)methyl)-N2-(1-methyl-1H-pyrazol-5-yl)-N1-((R)-1-(3,4-difluorophenyl)propyl)-N2-methyl-4-oxoazetidine-1,2-dicarboxamide], in data set [1], the Papp A→B at 60 min, 10 μM was below 10 ×10⁻⁶ cm/s and the Papp B→A at 40 min, 10 μM was 11 to 30 ×10⁻⁶ cm/s. For the same compound, the IC50 in data set [2] is below 10 nM. The “Ratio: FXa/FXIa” value in data set [4] is on record as “I (“I” indicates > 500)”.
